# Results: US11622991B2, “Protocol for treatment of lupus nephritis” (Aurinia Pharmaceuticals Inc., priority 2017, dated 2023)
# Tested on: lupus nephritis
# Experiment: Predictability of week 48 partial remission from early reduction in UPCR (Tables 4-8)
# Type: in vivo, human
# Procedure: In the study reported in Example 1, the predictability of outcomes based on markers at early time points were determined.
# This is important because it is undesirable to subject a patient to unnecessary treatment, even if the treatment is relatively safe.
# PR is defined as at least 50% reduction in proteinuria (i.e. UPCR).
# Sensitivity is defined as the probability that a subject showing PR at 48 weeks would have shown a favorable result with regard to the marker at the designated early time point. In the tables below, this is the ratio of the number of subjects with favorable marker results (early drop or normalization) to the total subjects with 48 week PR.
# Specificity is defined as the probability that a subject not showing PR at 48 weeks would have shown an unfavorable result with regard to the marker at the designated early time point. In the tables below, this is the ratio of the number of subjects with unfavorable marker results (no early drop or no normalization) to the total subjects with no 48 week PR.
# Positive predictive value is defined as the probability that a subject showing a favorable result with respect to the marker at an earlier time point would show PR at 48 weeks. In the tables below, this is the ratio of the number of subjects with favorable marker results who have 48 week PR to those with favorable marker results (early reduction or yes column).
# Negative predictive value is defined as the probability that a subject showing an unfavorable result with respect to the marker at an earlier time point would not show PR at 48 weeks. In the tables below, this is the ratio of the number of subjects with unfavorable marker results who have no PR at 48 weeks to the total subjects with unfavorable marker results (no early reduction or no column).
# [1] = 25% reduction in UPCR, Week 26, 23.7 mg BID
# [2] = 25% reduction in UPCR, Week 26, 39.5 mg BID
# [3] = 25% reduction in UPCR, Week 36, 23.7 mg BID
# [4] = 25% reduction in UPCR, Week 36, 39.5 mg BID
# [5] = 25% reduction in UPCR, Week 48, 23.7 mg BID
# [6] = 25% reduction in UPCR, Week 48, 39.5 mg BID
# [7] = early 30% reduction in UPCR, week 2, 39.5 mg BID
# [8] = early 30% reduction in UPCR, week 6, 23.7 mg BID
# [9] = early 30% reduction in UPCR, week 8, 23.7 mg BID
# [10] = early 30% reduction in UPCR, week 8, 39.5 mg BID
# [11] = early 30% reduction in UPCR, week 12, 39.5 mg BID
# [12] = early 30% reduction in UPCR, week 16, 23.7 mg BID
# [13] = early 30% reduction in UPCR, week 16, 39.5 mg BID
# [14] = early 30% reduction in UPCR, week 20, 23.7 mg BID
# [15] = early 30% reduction in UPCR, week 24, 23.7 mg BID
# [16] = early 30% reduction in UPCR, week 24, 39.5 mg BID
# [17] = early 30% reduction in UPCR, week 26, 23.7 mg BID
# [18] = early 30% reduction in UPCR, week 26, 39.5 mg BID
# [19] = early 30% reduction in UPCR, week 36, 23.7 mg BID
# [20] = early 30% reduction in UPCR, week 36, 39.5 mg BID
# [21] = early 30% reduction in UPCR, week 48, 23.7 mg BID
# [22] = early 30% reduction in UPCR, week 48, 39.5 mg BID
# [23] = early 35% reduction in UPCR, week 2, 39.5 mg BID
# [24] = early 35% reduction in UPCR, week 6, 23.7 mg BID
# [25] = early 35% reduction in UPCR, week 8, 23.7 mg BID
# [26] = early 35% reduction in UPCR, week 8, 39.5 mg BID
# [27] = early 35% reduction in UPCR, week 12, 23.7 mg BID
# [28] = early 35% reduction in UPCR, week 12, 39.5 mg BID
# [29] = early 35% reduction in UPCR, week 16, 23.7 mg BID
# [30] = early 35% reduction in UPCR, week 16, 39.5 mg BID
# [31] = early 35% reduction in UPCR, week 20, 23.7 mg BID
# [32] = early 35% reduction in UPCR, week 24, 23.7 mg BID
# [33] = early 35% reduction in UPCR, week 24, 39.5 mg BID
# [34] = early 35% reduction in UPCR, week 26, 23.7 mg BID
# [35] = early 35% reduction in UPCR, week 26, 39.5 mg BID
# [36] = early 35% reduction in UPCR, week 36, 23.7 mg BID
# [37] = early 35% reduction in UPCR, week 36, 39.5 mg BID
# [38] = early 35% reduction in UPCR, week 48, 23.7 mg BID
compound,measurement,setting,value
C=C/C=C/C[C@@H](C)[C@@H](O)[C@H]1C(=O)N[C@@H](CC)C(=O)N(C)CC(=O)N(C)[C@@H](CC(C)C)C(=O)N[C@@H](C(C)C)C(=O)N(C)[C@@H](CC(C)C)C(=O)N[C@@H](C)C(=O)N[C@H](C)C(=O)N(C)[C@@H](CC(C)C)C(=O)N(C)[C@@H](CC(C)C)C(=O)N(C)[C@@H](C(C)C)C(=O)N1C [voclosporin],No Week 48 Partial Remission Early Drop,[1],8
same,No Week 48 Partial Remission No Early Drop,[1],4
same,No Week 48 Partial Remission No Early Drop,[2],4
same,Week 48 Partial Remission No Early Drop,[2],1
same,Early Reduction No,[3],4
same,No Week 48 Partial Remission Early Drop,[3],10
same,No Week 48 Partial Remission No Early Drop,[3],3
same,Week 48 Partial Remission No Early Drop,[3],1
same,Early Reduction No,[4],8
same,Week 48 Partial Remission No Early Drop,[4],2
same,Early Reduction No,[5],2
same,No Week 48 Partial Remission Early Drop,[5],9
same,No Week 48 Partial Remission No Early Drop,[5],2
same,Early Reduction No,[6],9
same,No Week 48 Partial Remission Early Drop,[6],7
same,No Week 48 Partial Remission No Early Drop,[6],9
same,No Week 48 Partial Remission Early Drop,[7],11
same,Week 48 Partial Remission Early Drop,[7],31
same,Week 48 Partial Remission No Early Drop,[7],29
same,No Week 48 Partial Remission Early Drop,"early 30% reduction in UPCR, week 4, 23.7 mg BID",11
same,Week 48 Partial Remission No Early Drop,"early 30% reduction in UPCR, week 4, 39.5 mg BID",16
same,No Week 48 Partial Remission Early Drop,[8],10
same,No Week 48 Partial Remission No Early Drop,[8],8
same,Week 48 Partial Remission No Early Drop,[8],10
same,Week 48 Partial Remission No Early Drop,"early 30% reduction in UPCR, week 6, 39.5 mg BID",16
same,No Week 48 Partial Remission Early Drop,[9],10
same,No Week 48 Partial Remission No Early Drop,[9],9
same,Week 48 Partial Remission No Early Drop,[9],7
same,Early Reduction No,[10],11
same,No Week 48 Partial Remission No Early Drop,[10],4
same,Week 48 Partial Remission No Early Drop,[10],7
same,No Week 48 Partial Remission No Early Drop,"early 30% reduction in UPCR, week 12, 23.7 mg BID",7
same,Early Reduction No,[11],11
same,No Week 48 Partial Remission No Early Drop,[11],4
same,Week 48 Partial Remission No Early Drop,[11],7
same,Early Reduction No,[12],10
same,No Week 48 Partial Remission Early Drop,[12],11
same,No Week 48 Partial Remission No Early Drop,[12],7
same,Week 48 Partial Remission No Early Drop,[12],3
same,No Week 48 Partial Remission No Early Drop,[13],7
same,Week 48 Partial Remission No Early Drop,[13],8
same,Early Reduction No,[14],10
same,No Week 48 Partial Remission Early Drop,[14],9
same,No Week 48 Partial Remission No Early Drop,[14],7
same,Week 48 Partial Remission No Early Drop,[14],3
same,Early Reduction No,"early 30% reduction in UPCR, week 20, 39.5 mg BID",10
same,Early Reduction No,[15],4
same,No Week 48 Partial Remission Early Drop,[15],11
same,No Week 48 Partial Remission No Early Drop,[15],3
same,Week 48 Partial Remission No Early Drop,[15],1
same,No Week 48 Partial Remission No Early Drop,[16],7
same,Week 48 Partial Remission No Early Drop,[16],9
same,No Week 48 Partial Remission Early Drop,[17],7
same,Week 48 Partial Remission No Early Drop,[17],1
same,Early Reduction No,[18],8
same,No Week 48 Partial Remission Early Drop,[18],11
same,Week 48 Partial Remission No Early Drop,[18],3
same,Early Reduction No,[19],4
same,No Week 48 Partial Remission Early Drop,[19],10
same,No Week 48 Partial Remission No Early Drop,[19],3
same,Week 48 Partial Remission No Early Drop,[19],1
same,Early Reduction No,[20],9
same,No Week 48 Partial Remission Early Drop,[20],11
same,No Week 48 Partial Remission No Early Drop,[20],7
same,Week 48 Partial Remission No Early Drop,[20],2
same,Early Reduction No,[21],3
same,No Week 48 Partial Remission Early Drop,[21],8
same,No Week 48 Partial Remission No Early Drop,[21],3
same,Early Reduction No,[22],11
same,No Week 48 Partial Remission No Early Drop,[22],11
same,Early Reduction Yes,[23],39
same,No Week 48 Partial Remission Early Drop,[23],11
same,Week 48 Partial Remission No Early Drop,[23],32
same,No Week 48 Partial Remission Early Drop,"early 35% reduction in UPCR, week 4, 23.7 mg BID",11
same,No Week 48 Partial Remission No Early Drop,"early 35% reduction in UPCR, week 4, 39.5 mg BID",8
same,No Week 48 Partial Remission Early Drop,[24],9
same,No Week 48 Partial Remission No Early Drop,[24],9
same,Week 48 Partial Remission No Early Drop,"early 35% reduction in UPCR, week 6, 39.5 mg BID",16
same,No Week 48 Partial Remission Early Drop,[25],9
same,No Week 48 Partial Remission No Early Drop,[25],10
same,Week 48 Partial Remission No Early Drop,[25],8
same,No Week 48 Partial Remission No Early Drop,[26],4
same,Week 48 Partial Remission No Early Drop,[26],8
same,No Week 48 Partial Remission Early Drop,[27],10
same,No Week 48 Partial Remission No Early Drop,[27],9
same,Week 48 Partial Remission No Early Drop,[27],7
same,No Week 48 Partial Remission No Early Drop,[28],4
same,Week 48 Partial Remission No Early Drop,[28],10
same,Early Reduction No,[29],11
same,No Week 48 Partial Remission Early Drop,[29],11
same,No Week 48 Partial Remission No Early Drop,[29],7
same,Week 48 Partial Remission No Early Drop,[29],4
same,No Week 48 Partial Remission No Early Drop,[30],7
same,Week 48 Partial Remission No Early Drop,[30],8
same,Early Reduction No,[31],11
same,No Week 48 Partial Remission Early Drop,[31],8
same,No Week 48 Partial Remission No Early Drop,[31],8
same,Week 48 Partial Remission No Early Drop,[31],3
same,Early Reduction No,"early 35% reduction in UPCR, week 20, 39.5 mg BID",11
same,Early Reduction No,[32],7
same,No Week 48 Partial Remission Early Drop,[32],8
same,Week 48 Partial Remission No Early Drop,[32],1
same,No Week 48 Partial Remission No Early Drop,[33],7
same,Week 48 Partial Remission No Early Drop,[33],9
same,Early Reduction No,[34],8
same,No Week 48 Partial Remission Early Drop,[34],7
same,Week 48 Partial Remission No Early Drop,[34],3
same,Early Reduction No,[35],11
same,No Week 48 Partial Remission Early Drop,[35],11
same,No Week 48 Partial Remission Early Drop,[36],9
same,No Week 48 Partial Remission No Early Drop,[36],4
same,Week 48 Partial Remission No Early Drop,[36],1
same,Early Reduction No,[37],9
same,No Week 48 Partial Remission Early Drop,[37],11
same,No Week 48 Partial Remission No Early Drop,[37],7
same,Week 48 Partial Remission No Early Drop,[37],2
same,Early Reduction No,[38],4
same,No Week 48 Partial Remission Early Drop,[38],7
same,No Week 48 Partial Remission No Early Drop,[38],4
same,No Week 48 Partial Remission Early Drop,"early 35% reduction in UPCR, week 48, 39.5 mg BID",4
